These results are taken from patent publication US9889182B2, “Assisted enzyme replacement therapy” (The Regents of the University of California, priority 2009, dated 2018).

Marks after values point to notes of the source that are not given here.

Series [1] deals with Wild-type CHO cells. The series can be described thus: Live-cell uptake of fluorescent guanidinoneomycin conjugate (streptavidin-Alexa-488), microscopy. To be noted: 0.4 M sucrose; 5 mM amiloride. The class given is cell-based, Chinese hamster. As for the experimental part:
Microscopy—Cells were cultured on Lab-Tek chambered coverglass slides (Electron Microscopy Sciences) in F12 medium. After washing with PBS, cells were incubated for 1 h in 1 ml of 60 nM guanidinoneomycin coupled to streptavidin-Alexa-488 (Molecular Probes) at 37° C. Guanidinoneomycin-A488 was prepared by incubating 1 μM guanidinoneomycinbiotin with 6 μg of streptavidin-Alexa-488 in 1 ml of medium. Hoechst 33342 (2 μg/ml; Molecular Probes) was added to cells for the last 20 min of incubation. Cells were washed three times with F12 medium before live cell imaging. Microscopic images were acquired on an Olympus IX70 DeltaVision Spectris Image Deconvolution system, equipped with a temperature and atmospherically controlled stage. Images were deconvolved (10 cycles) using SoftWoRx Explorer Suite software.

The test system of series [2] is 10T1/2 cells. Kind of series: FACS cellular uptake of BODIPY conjugates in 10T1/2 cells. To be noted: for Mean Fluorescence Intensity of treated cells according to FACS, 10T1/2: 0.5 μM of each compound for 1 hr, average of 10,000 cells; for cellular uptake compared to poly-Arg peptide BODIPY-Cys(Arg)9 / cellular uptake: FACS; for cellular uptake compared to poly-Arg peptide BODIPY-Cys(Arg)9: Table 1; for cellular uptake: slightly above autofluorescence of the cell. The class given is cell-based, mouse. As for the experimental part:
(§1) 10T1/2 cells, an adherent non-transformed mouse fibroblast cell line, and HeLa cells, a common human cancer cell line, were purchased from ATCC and used before their 20th passage. Both cell lines were cultured in Dulbecco's modified eagle medium containing 10% fetal bovine serum at 37° C. in an 8% CO2 environment. For each experiment, cells were seeded onto 4 cm tissue culture plates (Nunc) and allowed to grow overnight to ˜80% confluency.
(§2) Compounds 1-5 identified in Table 1, below (0.5-1 μM), were added to each dish and incubated at 37° C./8% CO2 for 0.5-1 hr. Cells were then washed once in PBS, trypsinized with 500 μl ATV solution (Gibco) for 3 minutes, pelleted in a fixed angle centrifuge for 5 minutes at 5,000×G, then brought up in 1 mL PBS. Each sample was quickly (within 5 minutes) analyzed on a FACS VantageSE cell sorter (Becton-Dickinson) using the 488 nm argon/krypton laser line and a 530 nm band pass emission filter. 2,000-10,000 cells were counted per sample.

Series [3] relates to HeLa cells. The series can be described thus: FACS cellular uptake of BODIPY conjugates in HeLa cells. It counts as cell-based, human. To be noted: 1 μM of each compound for 0.5 hr; average of 2,000 cells; about 10-fold higher instrumental gain than 10T1/2. Here is the method:
as §1, §2

The test system of series [4] is WT CHO-K1 cells. The series can be described thus: Competition of guanidinoneomycin construct uptake by model glycans. It counts as cell-based, Chinese hamster.
For series [5], the system named is MPS I fibroblasts. Kind of series: [35S]glycosaminoglycan turnover, label-chase, MPS I fibroblasts. The note with it: enzyme 2 hours, chase 24 hours. It counts as cell-based, human. As for the experimental part:
(§3) To test whether internalized GUS was functionally localized in lysosomes, a label-chase format was used in which cells were incubated with ^35S-labeled sulfate for 24 hours to radiolabel the sulfated glycosaminoglycans. The medium was changed, and after 24 hours, the amount of [^35S]glycosaminoglycans that remained associated with the cells was quantitated. Normal and MPS fibroblasts were incubated in DMEM/F12 medium supplemented with 10% dialyzed fetal bovine serum in order to increase the radiospecific activity of added ^35S4. Cells were seeded in a 12-well plate, and at confluence, 50 μCi of Na[^35S]O4 (PerkinElmer) was added in 1 ml of fresh medium. After 24 hours, the cells were rinsed twice with PBS, exposed to GUS or α-iduronidase for 2 hours, rinsed twice, and then chased for 24 hours in complete growth medium. The cells were harvested with trypsin, centrifuged (500 g, 5 minutes), and washed once. The sedimented cells were then resuspended in 100 μl of RIPA buffer (Sigma) and counted by liquid scintillation spectrometry using Scintillator Ultima Gold XR (PerkinElmer).

The test system of series [6] is MPS VII fibroblasts. Kind of series: Uptake of GUS enzymes by MPS VII fibroblasts (β-glucuronidase activity). The class given is cell-based, human. As for the experimental part:
GUS activity was measured by assaying the conversion of 4-methylumbelliferyl β-d-glucuronide (MUG; Sigma) into the fluorochrome 4-methylumbelliferone. The assay was performed in 96-well plates, using 100 μl of reaction buffer containing 50 mmol/L sodium acetate (pH 5.2), 10 mmol/L EDTA, 0.01% bovine serum albumin, 0.1% Triton X-100, […] of MUG, and enzyme. After 1 hour at 37° C., fluorescent product was measured by fluorimetry (excitation at 360 nm, emission at 460 nm) and quantified using a standard curve of 4-methylumbelliferone. One unit (U) of activity is defined as the liberation of […] of 4-methylumbelliferone per hour at pH 5.2, 37° C. α-1-iduronidase activity was measured in a similar way using 4-methylumbelliferyl α-1-iduronide (Glycosynth, Warrington, UK) as substrate. The assay was performed in 10 μl of 50 mmol/L sodium formate (pH 3) buffer containing 10 mmol/L NaCl, 0.1 mg/ml bovine serum albumin, 50 μmol/l substrate, and 2 μl of enzyme.
To test whether GNeo-bGus was taken up by GUS-deficient cells, enzyme activity was measured in MPR VII fibroblasts after 2-hour incubation with various concentrations of unmodified bGus and G-Neo-bGus (see FIG. 15a). Normal HFF, MPS VII, and MPS I fibroblasts were cultured in Earl's Minimal Essential Medium supplemented with 15% of fetal bovine serum and penicillin/streptomycin (Invitrogen). Approximately 8×10^4 cells in 0.4 ml of medium were seeded in each well of a 24-well plate. After 3 days, cells were incubated in fresh medium with and without 5 mmol/L of M6P or glucose 6-phosphate (G6P) (Sigma). The cells were incubated for 2 hours at 37° C., washed twice with PBS, treated with trypsin/EDTA, and then combined with complete medium to inhibit the trypsin. […] In some experiments, cells were treated 3 hours with recombinant heparin lyases I, II, and III (5 mU/ml) in serum-free medium, and uptake was measured as described above in medium containing heparinases. Enzyme activity in the cell extracts was measured in triplicate using 5 μg of total cell protein. […]

In series [7] the test system is MPS VII fibroblasts. The series can be described thus: [35S]glycosaminoglycan turnover, label-chase, MPS VII fibroblasts. It counts as cell-based, human. To be noted: enzyme 2 hours, chase 24 hours. As for the experimental part: as §3

Consider `N=C(N)NC(=O)c1nc(Cl)c(N)nc1N` [amiloride], for which, in series [1], the “effect on internalization of fluorescent guanidinoneomycin conjugate” value was “no effect”.
On the same count and under the same terms, under `OC[C@H]1O[C@@](CO)(O[C@H]2O[C@H](CO)[C@@H](O)[C@H](O)[C@H]2O)[C@@H](O)[C@@H]1O` [sucrose] stands “marked decrease in internalization”.
Turning to `NC[C@H]1O[C@H](O[C@H]2[C@H](O)[C@@H](O[C@H]3O[C@H](CO)[C@@H](O)[C@H](N)[C@H]3O)[C@H](N)C[C@@H]2N)[C@H](N)C[C@@H]1O` [tobramycin, reference compound], the “enhancement of cellular uptake upon guanidinylation” value in series [2] (relative to autofluorescence, BODIPY conjugates, FIG. 3 and Table 1) is reported as “approximately 10 fold”.
In the case of “BODIPY-Cys(Arg)9 (CRRRRRRRRR; N-acetyl, C-amide, BODIPY label on Cys) [BODIPY-Cys (Arg)9 (5), common poly-Arg transduction peptide, reference compound]”, in series [2] (0.5 μM BODIPY-Cys(Arg)9 + 10 μM guanidine-neomycin B (6), 1 hr), the “Mean Fluorescence Intensity, 10T1/2, in presence of 10 μM (6)” value was found to be 110. Further, the “Mean Fluorescence Intensity, 10T1/2, in presence of 50 μM (6)” value in series [2] (0.5 μM BODIPY-Cys(Arg)9 + 50 μM guanidine-neomycin B (6), 1 hr) is given as 90. The “Mean Fluorescence Intensity, 10T1/2, in presence of 200 μM (6)” value in series [2] (0.5 μM BODIPY-Cys(Arg)9 + 200 μM guanidine-neomycin B (6), 1 hr) is reported as 70. For the same molecule, in series [2], the “Mean Fluorescence Intensity of treated cells according to FACS, 10T1/2” value (from here on “Mean Fluorescence Intensity … to FACS, 10T1/2”) is 280. The “Mean Fluorescence Intensity of treated cells according to FACS, HeLa” value (from here on “Mean Fluorescence Intensity … HeLa”) in series [3] was 2,000.
Take “dermatan sulfate [Dermatan sulfate, DS (G)]”: the “inhibition of cellular uptake of either construct (words)” value is given as “failed to inhibit” in series [4] (listed as Dermatan sulfate) and “no significant inhibition” in series [4] (listed as dermatan sulfate).
On to “guanidino-Neo-BODIPY [Guanidino-Neo-BODIPY (4)]”, for which, in series [2], the “Mean Fluorescence Intensity … to FACS, 10T1/2” value stood at 430 and the “cellular uptake compared to poly-Arg peptide BODIPY-Cys(Arg)9” value is listed as “better cellular uptake”. The “Mean Fluorescence Intensity … HeLa” value in series [3] is given as 7,900.
For “guanidino-tobra-BODIPY [Guanidino-Tobra-BODIPY (2)]” the same measures were 240, “approximately the same transport efficiency” and 2,100.
In the case of neo-BODIPY [Neo-BODIPY (3)], in series [2], the “Mean Fluorescence Intensity … to FACS, 10T1/2” value came out at 60 and the “cellular uptake” value is recorded as “poor cellular uptakes”. Further, the “Mean Fluorescence Intensity … HeLa” value in series [3] is ~1,400^(e).
As to tobra-BODIPY [Tobra-BODIPY (1)], in series [2], the “Mean Fluorescence Intensity … to FACS, 10T1/2” value is 60 and the “cellular uptake” value is recorded as “poor cellular uptakes”. In series [3], the “Mean Fluorescence Intensity … HeLa” value is on record as 1,000.

B1: Aldurazyme: recombinant therapeutic α-1-iduronidase (protein, UniProt P35475 28-653, looked up)
Alpha-L-iduronidase: APHLVHVDAARALWPLRRFWRSTGFCPPLPHSQADQYVLSWDQQLNLAYVGAVPHRGIKQVRTHWLLELVTTRGSTGRGLSYNFTHLDGYLDLLRENQLLPGFELMGSASGHFTDFEDKQQVFEWKDLVSSLARRYIGRYGLAHVSKWNFETWNEPDHHDFDNVSMTMQGFLNYYDACSEGLRAASPALRLGGPGDSFHTPPRSPLSWGLLRHCHDGTNFFTGEAGVRLDYISLHRKGARSSISILEQEKVVAQQIRQLFPKFADTPIYNDEADPLVGWSLPQPWRADVTYAAMVVKVIAQHQNLLLANTTSAFPYALLSNDNAFLSYHPHPFAQRTLTARFQVNNTRPPHVQLLRKPVLTAMGLLALLDEEQLWAEVSQAGTVLDSNHTVGVLASAHRPQGPADAWRAAVLIYASDDTRAHPNRSVAVTLRLRGVPPGPGLVYVTRYLDNGLCSPDGEWRRLGRPVFPTAEQFRRMRAAEDPVAAAPRPLPAGGRLTLRPALRLPSLLLVHVCARPEKPPGQVTRLRALPLTQGQLVLVWSDEHVGSKCLWTYEIQFSQDGKAYTPVSRKPSTFNLFVFSPDTGAVSGSYRVRALDYWARPGPFSDPVPYLEVPVPRGPPSPGNP
modifications: laronidase
notes: recombinant therapeutic α-1-iduronidase
For the molecule B1, the “ED50, [35S]glycosaminoglycan turnover” value in series [5] was 1 U.

B2: hGUS: human recombinant GUS (protein, UniProt P08236 23-651, looked up)
Beta-glucuronidase: LQGGMLYPQESPSRECKELDGLWSFRADFSDNRRRGFEEQWYRRPLWESGPTVDMPVPSSFNDISQDWRLRHFVGWVWYEREVILPERWTQDLRTRVVLRIGSAHSYAIVWVNGVDTLEHEGGYLPFEADISNLVQVGPLPSRLRITIAINNTLTPTTLPPGTIQYLTDTSKYPKGYFVQNTYFDFFNYAGLQRSVLLYTTPTTYIDDITVTTSVEQDSGLVNYQISVKGSNLFKLEVRLLDAENKVVANGTGTQGQLKVPGVSLWWPYLMHERPAYLYSLEVQLTAQTSLGPVSDFYTLPVGIRTVAVTKSQFLINGKPFYFHGVNKHEDADIRGKGFDWPLLVKDFNLLRWLGANAFRTSHYPYAEEVMQMCDRYGIVVIDECPGVGLALPQFFNNVSLHHHMQVMEEVVRRDKNHPAVVMWSVANEPASHLESAGYYLKMVIAHTKSLDPSRPVTFVSNSNYAADKGAPYVDVICLNSYYSWYHDYGHLELIQLQLATQFENWYKKYQKPIIQSEYGAETIAGFHQDPPLMFTEEYQKSLLEQYHLGLDQKRRKYVVGELIWNFADFMTEQSPTRVLGNKKGIFTRQRQPKSAAFLLRERYWKIANETRYPHSVAKSQCLENSLFT
For B2, the “effect of heparin lyase treatment of cells on uptake” value in series [6] was “insensitive”. Also, the “effect of M6P on uptake” value in series [6] (5 mmol/l M6P) is reported as “greatly inhibited uptake”. Further, the “uptake” value in series [6] (2-hour incubation) is listed as “robust”. The “ED50, [35S]glycosaminoglycan turnover” value in series [7] is listed as roughly 3 mU.

B3: AP-hGUS: hGUS treated with alkaline phosphatase (protein, UniProt P08236 23-651, looked up)
Beta-glucuronidase: B2 Beta-glucuronidase
modifications: dephosphorylated by alkaline phosphatase
In the case of B3, the “ED50, [35S]glycosaminoglycan turnover” value in series [7] is roughly 300 mU.

B4: GNeo-AP-hGUS: GNeo conjugate of alkaline phosphatase-treated hGUS (conjugate, UniProt P08236 23-651, looked up)
Beta-glucuronidase: B2 Beta-glucuronidase
modifications: GNeo conjugate, dephosphorylated
B4: the “ED50, [35S]glycosaminoglycan turnover” value in series [7] is recorded as roughly 10 mU.
